Results from patent US9012412B2, “Dual SGLT1/SGLT2 inhibitors” (Janssen Pharmaceutica NV, priority 2013, dated 2015).
pIC50: −log10 of the molar value.

How the values were obtained:
human SGLT1 = molecular target: T1, human SGLT1 (Homo sapiens, UniProt P13866); assay: Sodium-dependent 14C-methyl-α-D-glucopyranoside uptake in CHO-K1 cells stably expressing human SGLT1; type: cell-based; conditions: for inhibition at 3 µM: compound at 3 μM; for inhibition at 0.1 µM: compound at 0.1 μM; for pIC50: 14C-methyl-α-D-glucopyranoside uptake
T1 construct: expressed in transfected cells
T1 sequence (P13866 1-664): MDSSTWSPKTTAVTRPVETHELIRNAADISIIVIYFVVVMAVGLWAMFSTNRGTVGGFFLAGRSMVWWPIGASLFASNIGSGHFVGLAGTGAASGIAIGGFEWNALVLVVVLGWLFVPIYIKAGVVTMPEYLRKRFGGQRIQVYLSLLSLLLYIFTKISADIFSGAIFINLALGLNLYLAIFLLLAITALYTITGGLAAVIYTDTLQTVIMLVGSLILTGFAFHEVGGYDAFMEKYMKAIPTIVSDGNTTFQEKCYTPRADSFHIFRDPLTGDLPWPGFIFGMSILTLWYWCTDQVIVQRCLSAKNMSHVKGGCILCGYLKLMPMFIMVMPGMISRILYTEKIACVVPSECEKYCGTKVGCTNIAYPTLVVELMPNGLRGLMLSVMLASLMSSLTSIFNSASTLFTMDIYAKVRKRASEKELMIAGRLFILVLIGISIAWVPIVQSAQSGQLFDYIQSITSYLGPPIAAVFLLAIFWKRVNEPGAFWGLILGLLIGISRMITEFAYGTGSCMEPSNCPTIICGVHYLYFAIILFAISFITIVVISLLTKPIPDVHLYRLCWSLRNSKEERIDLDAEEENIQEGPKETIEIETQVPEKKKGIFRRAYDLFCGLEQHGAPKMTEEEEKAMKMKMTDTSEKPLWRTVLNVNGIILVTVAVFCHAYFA
Protocol: (§1) SGLT1 and SGLT2 were cloned in form of cDNA from human small intestine (Genbank M24847), and from human kidney (Genbank M95549), respectively. Subsequently, each full cDNA was subcloned into pcDNA with each construct's integrity verified through follow-on sequencing. To generate CHO-K1 cells that stably express human SGLT1 or human SGLT2 CHO-K1 cells were transfected using DMRIE-C reagent (Life Technologies, Gaithersburg, Md.). Transfected cells were then selected in the presence of 500 μg/ml of the antibiotic G418 (Gibco-BRL, Grand Island, N.Y.). Individual clones were then characterized using the following cell-based assay for sodium-dependent glucose transport.
(§2) First, cell lines stably expressing human SGLT1 or SGLT2 were seeded at a density of 65,000 cells per well per 200 μl cell culture medium with 10 mM of NaButyrate (Aldrich Catalog No. 30341-0) in a 96-well flat bottom plate (COSTAR, Catalog No. 3903). For human SGLT1 or SGLT2 expressing CHO-K1 cells the culture medium comprised Ham's F-12 (Invitrogen Catalog No. 31765), Fetal Bovine Serum (Invitrogen Catalog No. 16000), G418 (Geneticin, Cellgro Catalog No. 30234-CI), Phlorizidin (Sigma Catalog No. P3449), DPBS (Cellgro Catalog No. 21030-CV), ^14C-methyl-α-D-glucopyranoside (Amersham Catalog No. CFB 76), and Methyl-α-D-glucopyranoside (Sigma Catalog No. M-9376).
(§3) The cells were allowed to incubate for 24 hours. Subsequently, the medium was aspirated from the plates and the cells were washed one time with 150 μl assay buffer and incubate 15 min with another 150 μl assay buffer which comprised 50 mM HEPES pH 7.4, 20 mM Tris Base, 5 mM KCl, 1 mM MgCl2, 1 mM CaCl2, and 137 mM NaCl. After removing the wash buffer, 40 μl assay buffer and 10 μl compound solution was added to each well, which was again allowed to incubate for 10 min.
(§4) Following the 10 min incubation, 10 μl of serial diluted Methyl-α-D-glucopyranoside (Sigma Catalog No. M-9376) containing 0.07 μCi ^14C-methyl-α-D-glucopyranoside (Amersham Catalog No. CFB 76) was added to the appropriate well and allowed to incubate for another 2 hours. ^14C-methyl-α-D-glucopyranoside (Sigma Catalog No. M-9376, St. Louis, Mo.) is a non-metabolizable glucose analog specific for sodium-dependent glucose transporters as previously described by H. Peng and J. E. Lever in “Post-transcriptional regulation of Na+/glucose cotransporter (SGLT1) gene expression in LLC-PK1 cells,” J. Biol. Chem. 270, 20536-42 (1995).
(§5) Next, the plates were twice washed with 150 μl of ice-cold DPBS (Cellgro Catalog No. 21030) that was then completely removed from the plates before adding 50 μl of MicroScint™-20 (Packard Catalog No. 6013621) to each well for a 20 min or longer incubation time.
(§6) Sodium-dependent ^14C-methyl-α-D-glucopyranoside uptake was quantified by measuring radioactivity. Plates were counted in a TopCount (Packard, Meriden, Conn.). Results are reported as the %-inhibition or IC50 value from a representative experiment. Variability for the functional assay was typically within 20%.

human SGLT2 = molecular target: T2, human SGLT2 (Homo sapiens, UniProt P31639); assay: Sodium-dependent 14C-methyl-α-D-glucopyranoside uptake in CHO-K1 cells stably expressing human SGLT2; type: cell-based; conditions: for inhibition at 0.3 µM: compound at 0.3 μM; for inhibition at 3 µM: compound at 3 μM; for inhibition at 0.1 µM: compound at 0.1 μM; for pIC50: 14C-methyl-α-D-glucopyranoside uptake
T2 construct: expressed in transfected cells
T2 sequence (P31639 1-672): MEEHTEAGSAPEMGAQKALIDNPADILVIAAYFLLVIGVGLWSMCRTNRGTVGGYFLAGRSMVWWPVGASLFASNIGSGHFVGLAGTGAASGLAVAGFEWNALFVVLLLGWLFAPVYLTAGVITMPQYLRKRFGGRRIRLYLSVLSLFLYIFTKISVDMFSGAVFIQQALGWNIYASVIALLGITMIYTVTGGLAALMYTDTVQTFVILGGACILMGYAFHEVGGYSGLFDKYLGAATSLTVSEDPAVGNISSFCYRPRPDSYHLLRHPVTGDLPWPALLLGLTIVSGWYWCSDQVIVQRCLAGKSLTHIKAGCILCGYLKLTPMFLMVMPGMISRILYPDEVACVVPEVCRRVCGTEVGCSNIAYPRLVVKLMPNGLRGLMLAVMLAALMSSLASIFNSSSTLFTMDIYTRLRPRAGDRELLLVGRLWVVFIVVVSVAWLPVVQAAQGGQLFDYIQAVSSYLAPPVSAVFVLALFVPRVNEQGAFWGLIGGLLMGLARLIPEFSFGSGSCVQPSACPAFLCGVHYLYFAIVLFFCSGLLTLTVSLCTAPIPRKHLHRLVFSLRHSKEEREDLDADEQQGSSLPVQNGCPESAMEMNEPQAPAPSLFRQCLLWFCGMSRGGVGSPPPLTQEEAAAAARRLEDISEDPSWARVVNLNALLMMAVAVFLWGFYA
Protocol: as §1, §2, §3, §4, §5, §6

## COc1cc(O)c([C@@H]2O[C@H](CO)C[C@H](O)[C@H]2O)cc1C(C)(C)c1cc2ccccc2s1 [Cpd 14, (2S,3R,4S,6S)-2-(5-(2-(benzo[b]thiophen-2-yl)propan-2-yl)-2-hydroxy-4-methoxyphenyl)-6-(hydroxymethyl)tetrahydro-2H-pyran-3,4-diol]
Human SGLT1; compound at 0.3 μM
  inhibition at 0.3 µM: 46%
Human SGLT2
  inhibition at 0.3 µM: 54%

## C=C(c1cc2ccccc2s1)c1cc([C@@H]2O[C@H](CO)C[C@H](O)[C@H]2O)c(O)cc1OC [Cpd 7, (2S,3R,4S,6S)-2-(5-(1-(benzo[b]thiophen-2-yl)vinyl)-2-hydroxy-4-methoxyphenyl)-6-(hydroxymethyl)tetrahydro-2H-pyran-3,4-diol]
Human SGLT1
  inhibition at 3 µM: 43%
Human SGLT2
  inhibition at 3 µM: 6%

## Cc1cc(Br)c([C@@H]2O[C@H](CO)C[C@H](O)[C@H]2O)cc1Cc1ccc(-c2ccc(F)cc2)s1 [Cpd 30, (2S,3R,4S,6S)-2-(2-bromo-5-((5-(4-fluorophenyl)thiophen-2-yl)methyl)-4-methylphenyl)-6-(hydroxymethyl)tetrahydro-2H-pyran-3,4-diol]
Human SGLT1
  inhibition at 0.1 µM: 44%
Human SGLT2
  inhibition at 0.1 µM: 73%

## C=C(c1cc2ccccc2s1)c1cc([C@@H]2O[C@H](CO)C[C@H](O)[C@H]2O)c(O)cc1C [Cpd 8, (2S,3R,4S,6S)-2-(5-(1-(benzo[b]thiophen-2-yl)vinyl)-2-hydroxy-4-methylphenyl)-6-(hydroxymethyl)tetrahydro-2H-pyran-3,4-diol]
Human SGLT1
  inhibition at 3 µM: 41%
Human SGLT2
  inhibition at 3 µM: 25%

## Cc1cc(O)c([C@@H]2O[C@H](CO)C[C@H](O)[C@H]2O)cc1Cc1cc2cc(F)ccc2s1 [Cpd 19, (2S,3R,4S,6S)-2-(5-((5-fluorobenzo[b]thiophen-2-yl)methyl)-2-hydroxy-4-methylphenyl)-6-(hydroxymethyl)tetrahydro-2H-pyran-3,4-diol]
Human SGLT1
  pIC50: 6.66
Human SGLT2
  pIC50: 7.39

## Cc1cc(O)c([C@@H]2O[C@H](CO)C[C@H](O)[C@H]2O)cc1C(=O)c1cc2ccccc2s1 [Cpd 6, benzo[b]thiophen-2-yl(5-((2S,3R,4S,6S)-3,4-dihydroxy-6-(hydroxymethyl)-tetrahydro-2H-pyran-2-yl)-4-hydroxy-2-methylphenyl)methanone]
Human SGLT1
  inhibition at 3 µM: 0%
Human SGLT2
  inhibition at 3 µM: 0%

## Cc1cc(O)c([C@@H]2O[C@H](CO)C[C@H](O)[C@H]2O)cc1Cc1cc2cc(Cl)ccc2s1 [Cpd 20, (2S,3R,4S,6S)-2-(5-((5-chlorobenzo[b]thiophen-2-yl)methyl)-2-hydroxy-4-methylphenyl)-6-(hydroxymethyl)tetrahydro-2H-pyran-3,4-diol]
Human SGLT1
  inhibition at 0.1 µM: 20%
Human SGLT2
  inhibition at 0.1 µM: 84%

## COc1c(Cc2cc3ccccc3s2)cc([C@@H]2O[C@H](CO)C[C@H](O)[C@H]2O)c(O)c1F [Cpd 21, (2S,3R,4S,6S)-2-(5-(benzo[b]thiophen-2-ylmethyl)-3-fluoro-2-hydroxy-4-methoxyphenyl)-6-(hydroxymethyl)tetrahydro-2H-pyran-3,4-diol]
Human SGLT1
  inhibition at 0.1 µM: 26%
Human SGLT2
  inhibition at 0.1 µM: 78%

## COc1cc(O)c([C@@H]2O[C@H](CO)C[C@H](O)[C@H]2O)cc1C1(c2cc3ccccc3s2)CC1 [Cpd 9, (2S,3R,4S,6S)-2-(5-(1-(benzo[b]thiophen-2-yl)cyclopropyl)-2-hydroxy-4-methoxyphenyl)-6-(hydroxymethyl)tetrahydro-2H-pyran-3,4-diol]
Human SGLT1
  inhibition at 3 µM: 49%
Human SGLT2
  inhibition at 3 µM: 57%

## Cc1cc(O)c([C@@H]2O[C@H](CO)C[C@H](O)[C@H]2O)cc1C(C)(C)c1cc2ccccc2s1 [Cpd 15, (2S,3R,4S,6S)-2-(5-(2-(benzo[b]thiophen-2-yl)propan-2-yl)-2-hydroxy-4-methylphenyl)-6-(hydroxymethyl)tetrahydro-2H-pyran-3,4-diol]
Human SGLT1
  inhibition at 3 µM: 52%
Human SGLT2
  inhibition at 0.3 µM: 25%

## COc1cc(O)c([C@@H]2O[C@H](CO)C[C@H](O)[C@H]2O)cc1C(=O)c1cc2ccccc2s1 [Cpd 5, benzo[b]thiophen-2-yl(5-((2S,3R,4S,6S)-3,4-dihydroxy-6-(hydroxymethyl)tetrahydro-2H-pyran-2-yl)-4-hydroxy-2-methoxyphenyl)methanone]
Human SGLT1
  inhibition at 3 µM: 0%
Human SGLT2
  inhibition at 3 µM: 0%

## COc1cc(O)c([C@@H]2O[C@H](CO)C[C@H](O)[C@H]2O)cc1Cc1cc2ccccc2s1 [Cpd 2, (2S,3R,4S,6S)-2-(5-(benzo[b]thiophen-2-ylmethyl)-2-hydroxy-4-methoxyphenyl)-6-(hydroxymethyl)tetrahydro-2H-pyran-3,4-diol]
Human SGLT1
  pIC50: 6.81
Human SGLT2
  pIC50: 6.94

## Cc1cc(O)c([C@@H]2O[C@H](CO)C[C@H](O)[C@H]2O)cc1Cc1cc2ccccc2o1 [Cpd 28, (2S,3R,4S,6S)-2-(5-(benzofuran-2-ylmethyl)-2-hydroxy-4-methylphenyl)-6-(hydroxymethyl)tetrahydro-2H-pyran-3,4-diol]
Human SGLT1
  inhibition at 0.1 µM: 33%
Human SGLT2
  inhibition at 0.1 µM: 69%

## OC[C@@H]1C[C@H](O)[C@@H](O)[C@H](c2cc(Cc3cc4ccccc4s3)c(Cl)cc2O)O1 [Cpd 3, (2S,3R,4S,6S)-2-(5-(benzo[b]thiophen-2-ylmethyl)-4-chloro-2-hydroxyphenyl)-6-(hydroxymethyl)tetrahydro-2H-pyran-3,4-diol]
Human SGLT1
  pIC50: 6.94
Human SGLT2
  pIC50: 7.66

## N#Cc1cc(O)c([C@@H]2O[C@H](CO)C[C@H](O)[C@H]2O)cc1Cc1cc2ccccc2s1 [Cpd 13, 2-(benzo[b]thiophen-2-ylmethyl)-4-((2S,3R,4S,6S)-3,4-dihydroxy-6-(hydroxymethyl)tetrahydro-2H-pyran-2-yl)-5-hydroxybenzonitrile]
Human SGLT1
  inhibition at 3 µM: 57%
Human SGLT2
  inhibition at 0.3 µM: 73%

## Cc1cc(-c2cc[nH]n2)c([C@@H]2O[C@H](CO)C[C@H](O)[C@H]2O)cc1Cc1cc2ccccc2s1 [Cpd 27, (2S,3R,4S,6S)-2-(5-(benzo[b]thiophen-2-ylmethyl)-4-methyl-2-(1H-pyrazol-3-yl)phenyl)-6-(hydroxymethyl)tetrahydro-2H-pyran-3,4-diol]
Human SGLT1
  pIC50: 6.13
Human SGLT2
  pIC50: 8.00
